Measured values as given in ChEMBL document CHEMBL5518206, “Hit-to-Lead Identification and Validation of a Triaromatic Pleuromutilin Antibiotic Candidate” (J Med Chem, 2024).
Converted amounts (≈) assume the structure as drawn. The source made the active and inactive calls. The rule behind the calls is not given here.

Assays:
[1] = system: Staphylococcus aureus; assay: Induction of resistant development in lefamulin 5 passages resistance developed Staphylococcus aureus USA300 FPR3757 assessed as fold increase in MIC at sub-MIC concentration measured after 5 passages with conjugate by serial passage assay; assay type: functional
[2] = system: Staphylococcus aureus; assay: Induction of resistant development in -(6-(6-(Piperazin-1-y1)-9H-purin-9-y)methyl)pyridin-3-y1)-1H-1,2,3-triazol-1-yl)-22-deoxypleuromutilin-16 passages resistance developed Staphylococcus aureus USA300 FPR3757 assessed as fold increase in MIC at sub-MIC concentration measured after 9 passages with conjugate by serial passage assay; assay type: functional
[3] = system: Staphylococcus aureus; assay: Induction of resistant development in -(6-(6-(Piperazin-1-y1)-9H-purin-9-y)methyl)pyridin-3-y1)-1H-1,2,3-triazol-1-yl)-22-deoxypleuromutilin-16 passages resistance developed Staphylococcus aureus USA300 FPR3757 assessed as fold increase in MIC at sub-MIC concentration measured after 18 passages with conjugate by serial passage assay; assay type: functional
[4] = system: Staphylococcus aureus; assay: Induction of resistant development in lefamulin 5 passages resistance developed Staphylococcus aureus USA300 FPR3757 assessed as fold increase in MIC at sub-MIC concentration measured after 25 passages with conjugate by serial passage assay; assay type: functional
[5] = system: Staphylococcus aureus; assay: Induction of resistant development in linezolid 5 passages resistance developed Staphylococcus aureus USA300 FPR3757 assessed as fold increase in MIC at sub-MIC concentration measured after 9 passages with conjugate by serial passage assay; assay type: functional
[6] = system: Staphylococcus aureus; assay: Induction of resistant development in lefamulin 5 passages resistance developed Staphylococcus aureus USA300 FPR3757 assessed as fold increase in MIC at sub-MIC concentration measured after 18 passages with conjugate by serial passage assay; assay type: functional
[7] = system: Staphylococcus aureus; assay: Induction of resistant development in -(6-(6-(Piperazin-1-y1)-9H-purin-9-y)methyl)pyridin-3-y1)-1H-1,2,3-triazol-1-yl)-22-deoxypleuromutilin-16 passages resistance developed Staphylococcus aureus USA300 FPR3757 assessed as fold increase in MIC at sub-MIC concentration measured after 13 passages with conjugate by serial passage assay; assay type: functional
[8] = system: Staphylococcus aureus; assay: Induction of resistant development in linezolid 5 passages resistance developed Staphylococcus aureus USA300 FPR3757 assessed as fold increase in MIC at sub-MIC concentration measured after 13 passages with conjugate by serial passage assay; assay type: functional
[9] = system: Staphylococcus aureus; assay: Induction of resistant development in linezolid 5 passages resistance developed Staphylococcus aureus USA300 FPR3757 assessed as fold increase in MIC at sub-MIC concentration measured after 22 passages with conjugate by serial passage assay; assay type: functional
[10] = system: Staphylococcus aureus; assay: Induction of resistant development in -(6-(6-(Piperazin-1-y1)-9H-purin-9-y)methyl)pyridin-3-y1)-1H-1,2,3-triazol-1-yl)-22-deoxypleuromutilin-16 passages resistance developed Staphylococcus aureus USA300 FPR3757 assessed as fold increase in MIC at sub-MIC concentration measured after 5 passages with conjugate by serial passage assay; assay type: functional
[11] = system: Staphylococcus aureus; assay: Induction of resistant development in -(6-(6-(Piperazin-1-y1)-9H-purin-9-y)methyl)pyridin-3-y1)-1H-1,2,3-triazol-1-yl)-22-deoxypleuromutilin-16 passages resistance developed Staphylococcus aureus USA300 FPR3757 assessed as fold increase in MIC at sub-MIC concentration measured after 28 passages with conjugate by serial passage assay; assay type: functional
[12] = system: Staphylococcus aureus; assay: Induction of resistant development in linezolid 5 passages resistance developed Staphylococcus aureus USA300 FPR3757 assessed as fold increase in MIC at sub-MIC concentration measured after 28 passages with conjugate by serial passage assay; assay type: functional
[13] = system: Staphylococcus aureus; assay: Induction of resistant development in lefamulin 5 passages resistance developed Staphylococcus aureus USA300 FPR3757 assessed as fold increase in MIC at sub-MIC concentration measured after 28 passages with conjugate by serial passage assay; assay type: functional
[14] = system: Staphylococcus aureus; assay: Antibacterial activity against multi drug-resistant Staphylococcus aureus USA300 FPR3757 assessed as reduction in bacterial growth at 1 times of MIC concentration measured after 24 hrs by time-kill assay; assay type: functional, organism-based
[15] = system: Staphylococcus aureus; assay: Induction of resistant development in lefamulin 5 passages resistance developed Staphylococcus aureus USA300 FPR3757 assessed as fold increase in MIC at sub-MIC concentration measured after 9 passages with conjugate by serial passage assay; assay type: functional
[16] = system: Staphylococcus aureus; assay: Induction of resistant development in -(6-(6-(Piperazin-1-y1)-9H-purin-9-y)methyl)pyridin-3-y1)-1H-1,2,3-triazol-1-yl)-22-deoxypleuromutilin-16 passages resistance developed Staphylococcus aureus USA300 FPR3757 assessed as fold increase in MIC at sub-MIC concentration measured after 25 passages with conjugate by serial passage assay; assay type: functional
[17] = system: Staphylococcus aureus; assay: Induction of resistant development in lefamulin 5 passages resistance developed Staphylococcus aureus USA300 FPR3757 assessed as fold increase in MIC at sub-MIC concentration measured after 13 passages with conjugate by serial passage assay; assay type: functional
[18] = system: Staphylococcus aureus; assay: Induction of resistant development in linezolid 5 passages resistance developed Staphylococcus aureus USA300 FPR3757 assessed as fold increase in MIC at sub-MIC concentration measured after 5 passages with conjugate by serial passage assay; assay type: functional
[19] = system: Staphylococcus aureus; assay: Induction of resistant development in linezolid 5 passages resistance developed Staphylococcus aureus USA300 FPR3757 assessed as fold increase in MIC at sub-MIC concentration measured after 18 passages with conjugate by serial passage assay; assay type: functional
[20] = system: Staphylococcus aureus; assay: Induction of resistant development in linezolid 5 passages resistance developed Staphylococcus aureus USA300 FPR3757 assessed as fold increase in MIC at sub-MIC concentration measured after 25 passages with conjugate by serial passage assay; assay type: functional
[21] = system: Staphylococcus aureus; assay: Induction of resistant development in -(6-(6-(Piperazin-1-y1)-9H-purin-9-y)methyl)pyridin-3-y1)-1H-1,2,3-triazol-1-yl)-22-deoxypleuromutilin-16 passages resistance developed Staphylococcus aureus USA300 FPR3757 assessed as fold increase in MIC at sub-MIC concentration measured after 22 passages with conjugate by serial passage assay; assay type: functional
[22] = system: Staphylococcus aureus; assay: Induction of resistant development in lefamulin 5 passages resistance developed Staphylococcus aureus USA300 FPR3757 assessed as fold increase in MIC at sub-MIC concentration measured after 22 passages with conjugate by serial passage assay; assay type: functional
[23] = system: Listeria; assay: Antibacterial activity against Listeria assessed as inhibition of visible growth incubated for 20 to 24 hrs by microbroth serial dilution assay; assay type: functional, organism-based; settings: time 20-24 hrs
[24] = system: Enterococcus faecalis; assay: Antibacterial activity against Enterococcus faecalis assessed as inhibition of visible growth incubated for 20 to 24 hrs by microbroth serial dilution assay; assay type: functional; settings: time 20-24 hrs, read-out: MIC100
[25] = system: Staphylococcus epidermidis; assay: Antibacterial activity against Staphylococcus epidermidis assessed as inhibition of visible growth incubated for 20 to 24 hrs by microbroth serial dilution assay; assay type: functional, organism-based; settings: time 20-24 hrs
[26] = system: Enterococcus faecium; assay: Antibacterial activity against Vancomycin-resistant Enterococcus faecium assessed as inhibition of visible growth incubated for 20 to 24 hrs by microbroth serial dilution assay; assay type: functional; settings: time 20-24 hrs, read-out: MIC100
[27] = in vitro; settings: mouse, liver microsomes
[28] = target: hERG (KCNH2) (Homo sapiens, UniProt Q12809); assay: Inhibition of hERG expressed in HEK293 cells assessed as tail current at 60 uM measured after 8 mins by automated whole-cell Qpatch Clamp assay relative to control; settings: HEK293 cells that express hERG
[29] = Inhibition of P-gp efflux in MDCKII-MDR1 cells using calcein-AM as substrate assessed as intracellular calcein fluorescence preincubated for 15 mins followed by substrate addition and measured by fluorescence based assay; assay type: cell-based; settings: Canis lupus familiaris
[30] = system: Escherichia coli; assay: Antibacterial activity against Escherichia coli assessed as inhibition of visible growth incubated for 20 to 24 hrs by microbroth serial dilution assay; assay type: functional, organism-based; settings: time 20-24 hrs
[31] = system: Streptococcus pneumoniae; assay: Antibacterial activity against Streptococcus pneumoniae assessed as inhibition of visible growth incubated for 20 to 24 hrs by microbroth serial dilution assay; assay type: functional; settings: time 20-24 hrs, read-out: MIC100
[32] = in vitro; settings: mouse, liver microsomes; remark: listed apart in the source
[33] = in vitro; settings: human, liver microsomes
[34] = system: Staphylococcus aureus; assay: Antibacterial activity against multi drug-resistant Staphylococcus aureus USA300 FPR3757 assessed as inhibition of visible growth incubated for 20 to 24 hrs by microbroth serial dilution assay; assay type: functional; settings: time 20-24 hrs, read-out: MIC100
[35] = in vitro; settings: human, liver microsomes; remark: listed apart in the source
[36] = system: Enterococcus faecium; assay: Antibacterial activity against Linezolid/Ampicillin/ciprofloxacin/Vancomycin-resistant Enterococcus faecium assessed as inhibition of visible growth incubated for 20 to 24 hrs by microbroth serial dilution assay; assay type: functional; settings: time 20-24 hrs, read-out: MIC100
[37] = target: Voltage-gated inwardly rectifying potassium channel KCNH2 (Homo sapiens, UniProt Q12809); assay: Inhibition of hERG expressed in HEK293 cells assessed as tail current measured after 8 mins by automated whole-cell Qpatch Clamp assay
[38] = system: Staphylococcus aureus; assay: In vivo antibacterial activity against methicillin susceptible Staphylococcus aureus ATCC 25923 infected sepsis/peritonitis infection model assessed as reduction in bacterial burden in blood at 80 mg/kg, sc twice at 1 hr and 3 hrs measured after 6 hrs; assay type: functional
[39] = system: Staphylococcus aureus; assay: In vivo antibacterial activity against methicillin susceptible Staphylococcus aureus ATCC 25923 infected sepsis/peritonitis infection model assessed as reduction in bacterial burden in peritoneum at 80 mg/kg, sc twice at 1 hr and 3 hrs measured after 6 hrs; assay type: functional

hERG (KCNH2), sequence (Q12809 whole entry): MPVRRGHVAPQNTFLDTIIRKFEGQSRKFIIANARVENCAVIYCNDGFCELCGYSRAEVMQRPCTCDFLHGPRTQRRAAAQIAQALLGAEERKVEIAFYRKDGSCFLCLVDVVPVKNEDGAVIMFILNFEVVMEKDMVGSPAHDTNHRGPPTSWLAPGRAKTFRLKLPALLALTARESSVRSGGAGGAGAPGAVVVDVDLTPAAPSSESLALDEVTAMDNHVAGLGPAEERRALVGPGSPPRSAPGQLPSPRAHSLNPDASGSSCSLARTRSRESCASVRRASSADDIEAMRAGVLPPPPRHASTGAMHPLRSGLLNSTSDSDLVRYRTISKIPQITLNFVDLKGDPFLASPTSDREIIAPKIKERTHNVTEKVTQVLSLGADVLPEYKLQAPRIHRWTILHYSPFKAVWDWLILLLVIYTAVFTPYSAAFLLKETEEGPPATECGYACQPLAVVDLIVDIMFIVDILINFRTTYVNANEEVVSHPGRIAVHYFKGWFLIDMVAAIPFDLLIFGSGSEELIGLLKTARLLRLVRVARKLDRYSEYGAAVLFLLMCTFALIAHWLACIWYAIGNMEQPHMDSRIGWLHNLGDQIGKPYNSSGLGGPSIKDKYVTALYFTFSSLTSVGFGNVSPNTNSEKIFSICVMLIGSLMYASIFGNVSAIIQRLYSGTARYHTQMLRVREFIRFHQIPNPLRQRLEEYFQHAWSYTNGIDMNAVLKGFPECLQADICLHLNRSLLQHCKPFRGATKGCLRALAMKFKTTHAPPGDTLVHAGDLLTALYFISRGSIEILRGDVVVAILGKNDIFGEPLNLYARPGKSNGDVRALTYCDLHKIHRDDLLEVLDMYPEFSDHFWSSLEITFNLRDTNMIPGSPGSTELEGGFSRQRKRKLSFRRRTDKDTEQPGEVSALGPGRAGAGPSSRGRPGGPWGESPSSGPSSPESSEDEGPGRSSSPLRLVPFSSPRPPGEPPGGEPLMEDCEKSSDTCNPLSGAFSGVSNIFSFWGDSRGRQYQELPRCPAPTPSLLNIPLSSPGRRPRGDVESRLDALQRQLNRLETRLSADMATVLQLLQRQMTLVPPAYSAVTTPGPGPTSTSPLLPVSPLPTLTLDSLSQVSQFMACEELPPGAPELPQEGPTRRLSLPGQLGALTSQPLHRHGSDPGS
Voltage-gated inwardly rectifying potassium channel KCNH2, sequence (Q12809 whole entry): as above

Row | SMILES | fold change (FC) [1] | fold change (FC) [2] | fold change (FC) [3] | fold change (FC) [4] | fold change (FC) [5] | fold change (FC) [6] | fold change (FC) [7] | fold change (FC) [8] | fold change (FC) [9] | fold change (FC) [10] | fold change (FC) [11] | fold change (FC) [12] | fold change (FC) [13] | fold change (FC) [15] | fold change (FC) [16] | fold change (FC) [17] | fold change (FC) [18] | fold change (FC) [19] | fold change (FC) [20] | fold change (FC) [21] | also measured
1 | C=C[C@]1(C)C[C@@H](OC(=O)Cn2cc(-c3ccc(Cn4cnc5c(N6CCNCC6)ncnc54)nc3)nn2)[C@]2(C)[C@H](C)CC[C@]3(CCC(=O)[C@H]32)[C@@H](C)[C@@H]1O | 4 | 8 | 32 | 64 | 8 | 32 | 16 | 16 | 32 | 8 | 64 | 32 | 128 | 16 | 64 | 32 | 4 | 8 | 32 | 32 | Activity [14]: inactive; fold change (FC) [22]: 32
2 | C=C[C@]1(C)C[C@@H](OC(=O)Cn2cc(-c3ccc(Cn4cnc5c(N)ncnc54)cc3)nn2)[C@]2(C)[C@H](C)CC[C@]3(CCC(=O)[C@H]32)[C@@H](C)[C@@H]1O |  |  |  |  |  |  |  |  |  |  |  |  |  |  |  |  |  |  |  |  | Activity [23]: inactive; MIC [24]: 0.25 µg/mL (≈ 0.383 µM); Activity [25]: inactive; MIC [26]: 0.12 µg/mL (≈ 0.184 µM); half-life at 0.5 h, 1 µM [27]: < 0.5 min; inhibition at 8 min, 60 µM [28]: 26.3%; IC50 [29]: 36 µM; Activity [30]: inactive; MIC [31]: 0.5 µg/mL (≈ 0.766 µM); CLint scaled at 0.5 h, 1 µM [32]: > 600 L/h/kg; CLint scaled at 0.5 h, 1 µM [33]: 305 L/h/kg; MIC [34]: 0.03 µg/mL (≈ 0.046 µM); half-life at 0.5 h, 1 µM [35]: 1.2 min; MIC [36]: 0.12 µg/mL (≈ 0.184 µM); IC50 [37]: > 200 µM
3 | C=C[C@]1(C)C[C@@H](OC(=O)Cn2cc(-c3ccc(Cn4cnc5c(N6CCNCC6)ncnc54)nc3)nn2)[C@]2(C)[C@H](C)CC[C@]3(CCC(=O)[C@H]32)[C@@H](C)[C@@H]1O.Cl.Cl |  |  |  |  |  |  |  |  |  |  |  |  |  |  |  |  |  |  |  |  | Activity [38]: 2 log10FFU/ml; Activity [39]: 1 log10FFU/ml
4 | CC(=O)NC[C@H]1CN(c2ccc(N3CCOCC3)c(F)c2)C(=O)O1 | 8 | 4 | 4 | 2 | 4 | 2 | 4 | 8 | 32 | 8 | 16 | 32 | 2 | 2 | 8 | 4 | 4 | 16 | 32 | 8 | fold change (FC) [22]: 2
